Laboratory results taken from ChEMBL document CHEMBL5352474, “Synthesis and in vitro antileishmanial activity of alkylene-linked nitrofurantoin-triazole hybrids” (Eur J Med Chem, 2023).

Key:
[1] = Cytotoxicity against HEK293 cells assessed as inhibition of cell growth incubated for 48 hrs by resazurin dye based assay; assay type: toxicity; details: human
Leishmania major [2] = test: Antileishmanial activity against Leishmania major IR-173 promastigotes assessed as inhibition of parasite growth incubated for 48 hrs by resazurin dye based assay; assay type: functional, organism-based; details: IR-173, 48 h
[3] = Selectivity index, ratio of IC50 for cytotoxicity against HEK293 cells to IC50 for antileishmanial activity against Leishmania donovani 9515 promastigotes; assay type: toxicity, cell-based; details: human, read-out: Ratio IC50
Leishmania major [4] = test: Leishmanicidal activity against Leishmania major IR-173 amastigote infected in human THP-1 cells incubated for 72 hrs by resazurin dye based analysis; assay type: functional, organism-based; details: IR-173, THP-1, 72 h
Leishmania donovani [5] = test: Leishmanicidal activity against Leishmania donovani 9515 amastigote infected in human THP-1 cells incubated for 72 hrs by resazurin dye based analysis; assay type: functional, organism-based; details: Leishmania donovani, 9515, THP-1, 72 h
Leishmania major [6] = test: Antileishmanial activity against Leishmania major IR-173 amastigote infected in human THP-1 cells assessed as static activity by measuring inhibition of parasite growth incubated for 72 hrs by resazurin dye based assay; assay type: functional, organism-based; details: IR-173, THP-1, 72 h
Leishmania donovani [7] = test: Antileishmanial activity against Leishmania donovani 9515 amastigote infected in human THP-1 cells assessed as static activity by measuring inhibition of parasite growth incubated for 72 hrs by resazurin dye based assay; assay type: functional, organism-based; details: Leishmania donovani, 9515, THP-1, 72 h
Leishmania donovani [8] = test: Antileishmanial activity against Leishmania donovani 9515 promastigotes assessed as inhibition of parasite growth incubated for 48 hrs by resazurin dye based assay; assay type: functional, organism-based; details: Leishmania donovani, 9515, 48 h
[9] = Selectivity index, ratio of IC50 for cytotoxicity against HEK293 cells to IC50 for antileishmanial activity against Leishmania major IR-173 promastigotes; assay type: toxicity, cell-based; details: human, read-out: Ratio IC50
in vitro [10] = details: African green monkey, Vero cells
[11] = Selectivity index, ratio of IC50 for antileishmanial activity against Leishmania major IR-173 promastigotes to IC50 for leishmanicidal activity against Leishmania major IR-173 amastigote infected in human THP-1 cells; assay type: functional
[12] = Selectivity index, ratio of IC50 for cytotoxicity against African green monkey Vero cells to IC50 for leishmanicidal activity against Leishmania major […] amastigote infected in human THP-1 cells; assay type: toxicity, cell-based; details: read-out: Ratio IC50
in vitro [13] = details: human, THP-1 cells
[14] = Selectivity index, ratio of IC50 for antileishmanial activity against Leishmania major IR-173 promastigotes to IC50 for antileishmanial activity against Leishmania major IR-173 amastigote infected in human THP-1 cells assessed as static activity; assay type: functional
in vitro [15] = details: monkey, Vero cells
Description: Selectivity index, ratio of IC50 for cytotoxicity against African green monkey Vero cells to IC50 for antileishmanial activity against Leishmania major IR-173 amastigote infected in human THP-1 cells assessed as static activity

Compound | IC50 at 48 h [1] [µM] | IC50 (Leishmania major [2]) [µM] | selectivity ratio [3] | IC50 (Leishmania major [4]) [µM] | IC50 (Leishmania donovani [5]) [µM] | IC50 (Leishmania major [6]) [µM] | IC50 (Leishmania donovani [7]) [µM] | IC50 (Leishmania donovani [8]) [µM] | selectivity ratio [9] | IC50 at 48 h (in vitro [10]) [µM] | Ratio IC50 [11] | selectivity ratio [12] | IC50 at 48 h (in vitro [13]) [µM] | Ratio IC50 [14] | selectivity ratio (in vitro [15])
Cc1ccc(-c2cn(CCCCCCN3C(=O)CN(/N=C/c4ccc([N+](=O)[O-])o4)C3=O)nn2)cc1 | 31.1 | 0.66 | 32 | > 10 | > 10 | > 10 | > 10 | 0.98 | 47 |  |  |  |  |  | 
O=C1CN(/N=C/c2ccc([N+](=O)[O-])o2)C(=O)N1CCCn1cc(CSc2ccccc2)nn1 | 37.4 | 0.67 |  | 3.98 | 9.9 | > 10 | > 10 | > 10 | 56 | 3.86 | 0.2 | 1 | 6.65 |  | 
O=C1CN(/N=C/c2ccc([N+](=O)[O-])o2)C(=O)N1CCCCCn1cc(-c2ccc(F)cc2)nn1 | 37.2 | 0.98 |  | > 10 | > 10 | > 10 | > 10 | > 10 | 40 |  |  |  |  |  | 
CCCCCCc1cn(CCCN2C(=O)CN(/N=C/c3ccc([N+](=O)[O-])o3)C2=O)nn1 | 16.5 | 0.48 |  | > 10 | > 10 | 0.84 | > 10 | > 10 | 34 | > 100 |  |  | 38.5 | 0.7 | 119
O=C1CN(/N=C/c2ccc([N+](=O)[O-])o2)C(=O)N1CCCCCCn1cc(-c2cc(C(F)(F)F)cc(C(F)(F)F)c2)nn1 |  | 0.8 |  | > 10 | > 10 | > 10 | > 10 | 5.35 |  |  |  |  |  |  | 
CCCCCc1cn(CCCN2C(=O)CN(/N=C/c3ccc([N+](=O)[O-])o3)C2=O)nn1 | 35.6 | 0.55 |  | > 10 | > 10 | 0.61 | > 10 | > 10 | 74 | > 100 |  |  | 50.6 | 0.8 | 164
O=C1CN(/N=C/c2ccc([N+](=O)[O-])o2)C(=O)N1CCCn1cc(-c2cc(C(F)(F)F)cc(C(F)(F)F)c2)nn1 | 30.6 | 0.67 | 26 | > 10 | > 10 | > 10 | > 10 | 1.2 | 46 |  |  |  |  |  | 
O=C1CN(/N=C/c2ccc([N+](=O)[O-])o2)C(=O)N1CCCCCn1cc(-c2cc(C(F)(F)F)cc(C(F)(F)F)c2)nn1 | 17.7 | > 10 |  | > 10 | > 10 | > 10 | > 10 | > 10 |  |  |  |  |  |  | 
O=C1CN(/N=C/c2ccc([N+](=O)[O-])o2)C(=O)N1CCCCCn1cc(CSc2ccccc2)nn1 | 87.9 | 1.7 | 8790 | > 10 | > 10 | > 10 | > 10 | 0.01 | 52 |  |  |  |  |  | 
CCCCCc1ccc(-c2cn(CCCCCN3C(=O)CN(/N=C/c4ccc([N+](=O)[O-])o4)C3=O)nn2)cc1 | 9.73 | > 10 |  | > 10 | > 10 | > 10 | > 10 | > 10 |  |  |  |  |  |  | 
CCCCCc1ccc(-c2cn(CCCN3C(=O)CN(/N=C/c4ccc([N+](=O)[O-])o4)C3=O)nn2)cc1 | 79.8 | > 10 |  | > 10 | > 10 | > 10 | > 10 | > 10 |  |  |  |  |  |  | 
CCCCCCCCc1cn(CCCN2C(=O)CN(/N=C/c3ccc([N+](=O)[O-])o3)C2=O)nn1 | 11.5 | 0.73 |  | > 10 | > 10 | > 10 | > 10 | > 10 | 16 |  |  |  |  |  | 
O=C1CN(/N=C/c2ccc([N+](=O)[O-])o2)C(=O)N1CCCn1cc(-c2ccc(F)cc2)nn1 | > 100 | 0.74 |  | > 10 | > 10 | > 10 | > 10 | > 10 | > 135 |  |  |  |  |  | 
O=C1CN(/N=C/c2ccc([N+](=O)[O-])o2)C(=O)N1CCCCCCn1cc(-c2ccc(F)cc2)nn1 | 8.97 | 0.22 |  | > 10 | > 10 | > 10 | > 10 | > 10 | 40 |  |  |  |  |  | 
O=C1CN(/N=C/c2ccc([N+](=O)[O-])o2)C(=O)N1CCCCCCn1cc(CSc2ccccc2)nn1 | 19.6 | 2.75 | 327 | > 10 | > 10 | > 10 | > 10 | 0.06 | 7 |  |  |  |  |  | 
CCCCCCc1cn(CCCCCN2C(=O)CN(/N=C/c3ccc([N+](=O)[O-])o3)C2=O)nn1 | 65.9 | 1.5 | 108 | > 10 | > 10 | > 10 | > 10 | 0.61 | 44 |  |  |  |  |  | 
Cc1ccc(-c2cn(CCCCCN3C(=O)CN(/N=C/c4ccc([N+](=O)[O-])o4)C3=O)nn2)cc1 | 13.9 | 1.86 |  | > 10 | > 10 | > 10 | > 10 | > 10 | 8 |  |  |  |  |  | 
COc1ccc(-c2cn(CCCCCN3C(=O)CN(/N=C/c4ccc([N+](=O)[O-])o4)C3=O)nn2)cc1 | 22.7 | 0.5 |  | > 10 | > 10 | > 10 | > 10 | > 10 | 45 |  |  |  |  |  | 
CCCCCCCCc1cn(CCCCCCN2C(=O)CN(/N=C/c3ccc([N+](=O)[O-])o3)C2=O)nn1 | 50.3 | 2.62 | 457 | > 10 | > 10 | > 10 | > 10 | 0.11 | 19 |  |  |  |  |  | 
CCCCCCc1cn(CCCCCCN2C(=O)CN(/N=C/c3ccc([N+](=O)[O-])o3)C2=O)nn1 | 83.4 | 5.3 | 174 | > 10 | > 10 | > 10 | > 10 | 0.48 | 16 |  |  |  |  |  | 
CCCCCCCCc1cn(CCCCCN2C(=O)CN(/N=C/c3ccc([N+](=O)[O-])o3)C2=O)nn1 | 28.6 | > 10 |  | > 10 | > 10 | > 10 | > 10 | > 10 |  |  |  |  |  |  | 
CCCCc1cn(CCCCCCN2C(=O)CN(/N=C/c3ccc([N+](=O)[O-])o3)C2=O)nn1 | 44.5 | 1.19 |  | > 10 | > 10 | > 10 | > 10 | > 10 | 37 |  |  |  |  |  | 
COc1ccc(-c2cn(CCCCCCN3C(=O)CN(/N=C/c4ccc([N+](=O)[O-])o4)C3=O)nn2)cc1 | 5.39 | 0.59 | 23 | > 10 | > 10 | > 10 | > 10 | 0.23 | 9 |  |  |  |  |  | 
C[C@@H]1[C@H](O)[C@@H](C)/C=C/C=C/C=C/C=C/C=C/C=C/C=C/[C@H](O[C@@H]2O[C@H](C)[C@@H](O)[C@H](N)[C@@H]2O)C[C@@H]2O[C@](O)(C[C@@H](O)C[C@@H](O)[C@H](O)CC[C@@H](O)C[C@@H](O)CC(=O)O[C@H]1C)C[C@H](O)[C@H]2C(=O)O [AMPHOTERICIN B] |  |  |  |  |  | 0.03 |  |  |  |  |  |  |  |  | 
CCCCCc1ccc(-c2cn(CCCCCCN3C(=O)CN(/N=C/c4ccc([N+](=O)[O-])o4)C3=O)nn2)cc1 |  | 2.19 |  | > 10 | > 10 | > 10 | > 10 | 0.05 |  |  |  |  |  |  | 
CC[C@H]1CN2CCc3cc(OC)c(OC)cc3[C@@H]2C[C@@H]1C[C@H]1NCCc2cc(OC)c(OC)cc21 [EMETINE] | 0.01 |  |  |  |  |  |  |  |  |  |  |  |  |  | 
CCCCCc1cn(CCCCCCN2C(=O)CN(/N=C/c3ccc([N+](=O)[O-])o3)C2=O)nn1 | 15.5 | 0.27 |  | > 10 | > 10 | > 10 | > 10 | > 10 | 57 |  |  |  |  |  | 
